Measured values from patent US20250154105A1, “POLYCYCLIC COMPOUND AND USE THEREOF” (TYK MEDICINES, INC., priority 2021, published 2025).

Tests used:
[1] = test system: human pleural mesothelioma cells NCI-H226; assay: Cell anti-proliferation experiment (CCK8), NCI-H226; type: cell-based
Summary of the method: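 Viability was measured by CCK-8 (3 h, A450) after 3-day treatment with 0.15–333.33 nM compound in 0.1% DMSO medium. Curve-fitted IC50 was based on viability normalised to no-drug and cell-free controls.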

YAP-TEAD = YAP-TEAD inhibitor activity by Nano luciferase method (8xGTiiC-nLuc reporter in 293T cells); type: cell-based; conditions: Homo sapiens, HEK-293T, 48 hours incubation, read-out: Nano-luciferase detection (IC50)
Summary of the method: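 IC50 derived from nLuc reporter signal normalised to 0 nM wells, after 48 h, 37 °C compound exposure (1:3.16 series, highest 10,000 nM). Cells: 293T transfected with 8xGTiiC-nLuc/CMV-fLuc plasmid, plated at 2000 per well.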

Structure (SMILES)	IC50 [1] [nM]	IC50 (YAP-TEAD) [nM]
CNc1cccc([C@H](C)NC(=O)c2ccc3c(c2)c2nn(C)cc2c(=O)n3-c2ccc(C(F)(F)F)cc2)n1 [Example T-149]	≤ 1000	≤ 1000
C[C@H](NC(=O)c1ccc2c(c1)c1nn(C)cc1c(=O)n2-c1ccc(C(F)(F)F)cc1)c1cccc(N(C)C)n1 [Example T-150]	≤ 1000	≤ 1000
Cc1cccc([C@H](C)NC(=O)c2ccc3c(c2)c2nn(C)cc2c(=O)n3-c2ccc(C(F)(F)F)cc2)n1 [Example T-151]	≤ 1000	≤ 1000
C[C@H](NC(=O)c1ccc2c(c1)c1nn(C)cc1c(=O)n2-c1ccc(C(F)(F)F)cc1)c1cccc(C#N)n1 [Example T-152]	≤ 1000	≤ 1000
C[C@H](NC(=O)c1ccc2c(c1)c1nn(C)cc1c(=O)n2-c1ccc(C(F)(F)F)cc1)c1cccc(F)n1 [Example T-153]	≤ 1000	≤ 1000
C[C@H](NS(=O)(=O)c1ccc2c(c1)c1nn(C)cc1c(=O)n2-c1ccc(C(F)(F)F)cc1)c1ccccc1 [Example T-165]	1000 to 5000	1000 to 5000
C[C@H](NS(=O)(=O)c1ccc2c(c1)c1nn(C)cc1c(=O)n2-c1ccc(S(F)(F)(F)(F)F)cc1)c1ccccn1 [Example T-166]	1000 to 5000	1000 to 5000
C[C@H](NS(=O)(=O)c1ccc2c(c1)c1nn(C)cc1c(=O)n2-c1ccc(OC(F)(F)F)cc1)c1ccccn1 [Example T-167]	1000 to 5000	1000 to 5000
C[C@@H](C(=O)Nc1ccc2c(c1)c1nn(C)cc1c(=O)n2-c1ccc(C(F)(F)F)cc1)c1ccccn1 [Example T-168]	1000 to 5000	1000 to 5000
C[C@H](C(=O)Nc1ccc2c(c1)c1nn(C)cc1c(=O)n2-c1ccc(C(F)(F)F)cc1)c1ccccn1 [Example T-169]	1000 to 5000	1000 to 5000
Cn1cc2c(=O)n(-c3ccc(C(F)(F)F)cc3)c3ccc(NC(=O)c4ccccn4)cc3c2n1 [Example T-170]	≤ 1000	≤ 1000
Cn1cc2c(=O)n(-c3ccc(C(F)(F)F)cc3)c3ccc(NC(=O)c4ccccc4)cc3c2n1 [Example T-171]	≤ 1000	≤ 1000
C=CC(=O)Nc1ccc2c(c1)c1nn(C)cc1c(=O)n2-c1ccc(C(F)(F)F)cc1 [Example T-172]	≤ 1000	≤ 1000
Cn1cc2c(=O)n(-c3ccc(C(F)(F)F)cc3)c3ccc(NC(=O)CCCCl)cc3c2n1 [Example T-173]	1000 to 5000	1000 to 5000
Cn1cc2c(=O)n(-c3ccc(C(F)(F)F)cc3)c3ccc(NC(=O)C(F)(F)F)cc3c2n1 [Example T-174]	≤ 1000	≤ 1000
CC(=O)Nc1ccc2c(c1)c1nn(C)cc1c(=O)n2-c1ccc(C(F)(F)F)cc1 [Example T-175]	≤ 1000	≤ 1000
CN(C)C/C=C/C(=O)Nc1ccc2c(c1)c1nn(C)cc1c(=O)n2-c1ccc(C(F)(F)F)cc1 [Example T-176]	≤ 1000	≤ 1000
Cn1cc2c(=O)n(-c3ccc(C(F)(F)F)cc3)c3ccc(NC(=O)/C=C/CN4CCCCC4)cc3c2n1 [Example T-177]	≤ 1000	≤ 1000
Cn1cc2c(=O)n(-c3ccc(C(F)(F)F)cc3)c3ccc(NC(=O)/C=C/CN4CCOCC4)cc3c2n1 [Example T-178]	≤ 1000	≤ 1000
Cn1cc2c(=O)n(-c3ccc(C(F)(F)F)cc3)c3ccc(NC(=O)/C=C/CN4CCCC4)cc3c2n1 [Example T-179]	≤ 1000	≤ 1000

Structure (SMILES)	IC50 [1] [nM]	IC50 (YAP-TEAD) [nM]
COC(=O)Nc1ccc2c(c1)c1nn(C)cc1c(=O)n2-c1ccc(C(F)(F)F)cc1 [Example T-180]	≤ 1000	≤ 1000
CNC(=O)Nc1ccc2c(c1)c1nn(C)cc1c(=O)n2-c1ccc(C(F)(F)F)cc1 [Example T-181]	≤ 1000	≤ 1000
CN(C)C(=O)Nc1ccc2c(c1)c1nn(C)cc1c(=O)n2-c1ccc(C(F)(F)F)cc1 [Example T-182]	≤ 1000	≤ 1000
Cn1cc2c(=O)n(-c3ccc(C(F)(F)F)cc3)c3ccc(NC(N)=O)cc3c2n1 [Example T-183]	≤ 1000	≤ 1000
Cn1cc2c(=O)n(-c3ccc(C(F)(F)F)cc3)c3ccc(NC(=O)N4CCCC4)cc3c2n1 [Example T-184]	≤ 1000	≤ 1000
Cn1cc2c(=O)n(-c3ccc(C(F)(F)F)cc3)c3ccc(NC(=O)N4CCCCC4)cc3c2n1 [Example T-185]	≤ 1000	≤ 1000
Cn1cc2c(=O)n(-c3ccc(C(F)(F)F)cc3)c3ccc(NS(=O)(=O)c4ccccc4)cc3c2n1 [Example T-186]	≤ 1000	≤ 1000
Cn1cc2c(=O)n(-c3ccc(C(F)(F)F)cc3)c3ccc(NS(=O)(=O)c4ccc(F)cc4)cc3c2n1 [Example T-187]	≤ 1000	≤ 1000
CCS(=O)(=O)Nc1ccc2c(c1)c1nn(C)cc1c(=O)n2-c1ccc(C(F)(F)F)cc1 [Example T-188]	≤ 1000	≤ 1000
Cc1ccc(S(=O)(=O)Nc2ccc3c(c2)c2nn(C)cc2c(=O)n3-c2ccc(C(F)(F)F)cc2)cc1 [Example T-189]	≤ 1000	≤ 1000
Cn1cc2c(=O)n(-c3ccc(C(F)(F)F)cc3)c3ccc(NS(C)(=O)=O)cc3c2n1 [Example T-190]	≤ 1000	≤ 1000
Cn1cc2c(=O)n(-c3ccc(C(F)(F)F)cc3)c3ccc(NS(=O)(=O)C(F)(F)F)cc3c2n1 [Example T-191]	≤ 1000	≤ 1000
COCCOC(=O)Nc1ccc2c(c1)c1nn(C)cc1c(=O)n2-c1ccc(C(F)(F)F)cc1 [Example T-192]	≤ 1000	≤ 1000
CCOC(=O)Nc1ccc2c(c1)c1nn(C)cc1c(=O)n2-c1ccc(C(F)(F)F)cc1 [Example T-193]	≤ 1000	≤ 1000
CC(C)OC(=O)Nc1ccc2c(c1)c1nn(C)cc1c(=O)n2-c1ccc(C(F)(F)F)cc1 [Example T-194]	≤ 1000	≤ 1000
CNS(=O)(=O)c1ccc2c(c1)c1c(cnn1C)c(=O)n2-c1ccc(C(F)(F)F)cc1 [Example T-195]	1000 to 5000	1000 to 5000
CNS(=O)(=O)c1ccc2c(c1)c1ccccc1c(=O)n2-c1ccc(C(F)(F)F)cc1 [Example T-199]	1000 to 5000	1000 to 5000
C[C@H](NC(=O)c1ccc2c(c1)c1nn(C)cc1c(=O)n2-c1ccc(S(F)(F)(F)(F)F)cc1)c1ccccn1 [Example T-227]	≤ 1000	≤ 1000
C[C@H](NC(=O)c1ccc2c(c1)c1nn(C)cc1c(=O)n2-c1ccc(OC(F)(F)F)cc1)c1ccccn1 [Example T-229]	≤ 1000	≤ 1000
C[C@H](NC(=O)c1ccc2c(c1)c1nn(C)cc1c(=O)n2-c1ccc(OC(F)(F)F)cc1)c1ccccc1 [Example T-230]	≤ 1000	≤ 1000

Structure (SMILES)	IC50 [1] [nM]	IC50 (YAP-TEAD) [nM]
C=CC(=O)Nc1ccc2c(c1)c1nn(C)cc1c(=O)n2-c1ccc(S(F)(F)(F)(F)F)cc1 [Example T-231]	≤ 1000	≤ 1000
C=CC(=O)Nc1ccc2c(c1)c1nn(C)cc1c(=O)n2-c1ccc(OC(F)(F)F)cc1 [Example T-232]	≤ 1000	≤ 1000
CC(C)/C=C/C(=O)Nc1ccc2c(c1)c1nn(C)cc1c(=O)n2-c1ccc(C(F)(F)F)cc1 [Example T-233]	≤ 1000	≤ 1000
CC/C=C/C(=O)Nc1ccc2c(c1)c1nn(C)cc1c(=O)n2-c1ccc(C(F)(F)F)cc1 [Example T-234]	≤ 1000	≤ 1000
C=C(F)C(=O)Nc1ccc2c(c1)c1nn(C)cc1c(=O)n2-c1ccc(C(F)(F)F)cc1 [Example T-235]	≤ 1000	≤ 1000
C=C(C)C(=O)Nc1ccc2c(c1)c1nn(C)cc1c(=O)n2-c1ccc(C(F)(F)F)cc1 [Example T-236]	≤ 1000	≤ 1000
C#CC(=O)Nc1ccc2c(c1)c1nn(C)cc1c(=O)n2-c1ccc(C(F)(F)F)cc1 [Example T-237]	≤ 1000	≤ 1000
CC#CC(=O)Nc1ccc2c(c1)c1nn(C)cc1c(=O)n2-c1ccc(C(F)(F)F)cc1 [Example T-238]	≤ 1000	≤ 1000
C/C=C/C(=O)Nc1ccc2c(c1)c1nn(C)cc1c(=O)n2-c1ccc(C(F)(F)F)cc1 [Example T-239]	≤ 1000	≤ 1000
C=CC(=O)Nc1cnc2c(c1)c1cscc1c(=O)n2-c1ccc(C(F)(F)F)cc1 [Example T-240]	≤ 1000	≤ 1000
C=CC(=O)Nc1cnc2c(c1)c1nn(C)cc1c(=O)n2-c1ccc(C(F)(F)F)cc1 [Example T-241]	≤ 1000	≤ 1000
C=CC(=O)Nc1cnc2c(c1)c1ccccc1c(=O)n2-c1ccc(C(F)(F)F)cc1 [Example T-242]	≤ 1000	≤ 1000
C[C@H](NC(=O)c1cnc2c(c1)c1nn(C)cc1c(=O)n2-c1ccc(C(F)(F)F)cc1)c1ccccn1 [Example T-243]	≤ 1000	≤ 1000
C[C@H](NC(=O)c1cnc2c(c1)c1ccccc1c(=O)n2-c1ccc(C(F)(F)F)cc1)c1ccccn1 [Example T-244]	≤ 1000	≤ 1000
C[C@H](NC(=O)c1cnc2c(c1)c1c(c(=O)n2-c2ccc(C(F)(F)F)cc2)CCC1)c1ccccn1 [Example T-245]	≤ 1000	≤ 1000
C[C@H](NC(=O)c1cnc2c(c1)c1cscc1c(=O)n2-c1ccc(C(F)(F)F)cc1)c1ccccn1 [Example T-246]	≤ 1000	≤ 1000
C[C@H](NC(=O)c1cnc2c(c1)C1CCCCC1C(=O)N2c1ccc(C(F)(F)F)cc1)c1ccccn1 (some centres unmarked) [Example T-247]	≤ 1000	≤ 1000
C[C@H](NC(=O)c1ccc2c(c1)c1ccccc1c(=O)n2-c1ccc(C(F)(F)F)cn1)c1ccccn1 [Example T-248]	≤ 1000	≤ 1000
